# Source: patent publication US20220362219A1, “RETINA REGENERATION THROUGH EPIGENETICS MANIPULATION” (Baylor College of Medicine, priority 2019, published 2022)
# “Also recorded” adds a separate entry of the source.
# Assays:
# Spata7 mutant retina = test: Intravitreal injection in Spata7 knockout retinal degeneration mouse model (H&E, immunohistochemistry); format: in vivo
# Description: (§1) FIGS. 1A-1C concern an example of retinal regeneration in Spata7-mutated (KO) retinal cells. (1A) One example of a timeline for studies, where the examples of timepoints are post-natal day 14, 21, and 34, respectively. (1B) Hematoxylin and eosin (H&E) staining for Spata7 KO mice versus wild-type control. Eyes were injected with SYC1127 (treated) eye compared to PBS-injected control. (1C) Immunofluorescence staining for Cone-rod homeobox protein (CRX, a marker for photoreceptor cells and bipolar cells); Glial fibrillary acidic protein (GFAP, a marker for Müller glial cells); and RNA Binding Protein, MRNA Processing Factor (RBPMS, a marker for retinal ganglion cells (RGC)) in Spata7 KO-treated eye (treated with SYC1127) and control eye (treated with PBS).
# (§2) H&E staining of all three neural layers of the retina is shown following intravitreal injection of SYC1127 in wild-type mice vs. Spata7 KO mutants.
# Immunohistochemistry using antibodies that bind Sox9 or GFAP, both markers of Müller glial cells, is provided for SYC1127-treated Spata7 KO mutants vs. PBS controls.
# In this present example, one example of a potent Histone Acetylation Transferase inhibitor (HATi), the compound SYC1127, is administered by intravitreal injection in a retinal degeneration mouse model having a knockout mutation in Spata7. An example of an injection regimen is provided in FIG. 1A, in which there are multiple intravitreal injections. […] To examine if these newly generated cells are indeed differentiated properly, immunohistochemistry (IHC) using antibodies against certain cell type-specific markers is performed. […] The number of regenerative cells is much higher than that of previously reported by others, making it useful for therapy.
# Retinal regeneration is induced through epigenomics manipulation, in particular embodiments. […] As at least one type of retinal cells, retinal ganglion cells are induced following administration of SYC1127.
# [1] = system: histone markers H3K27Ac and H3K9Me3 in the retina; test: Chromatin modification in the retina after intravitreal injection (antibody staining of histone markers); format: in vivo, mouse; conditions: FIG. 2
# Description: The outer nuclear layers (ONL) and the inner nuclear layers (INL) of the respective retina are shown. Markers related to reduced levels of histone acetylation (H3K27Ac) and increased levels of histone […] are identified with corresponding antibodies.
# Further evidence is provided that HATi are useful for chromatin modifications that lead to epigenomic manipulation, thereby leading to regeneration of retinal cells. […] Upon intravitreal injection of the compound SYC1127, there is reduction in the level of histone acetylation as expected, such as with H3K27Ac (an epigenetic modification to Histone H3 that is a mark that indicates the acetylation at the 27th lysine residue of the Histone H3 protein). At the same time, the level of chromatin-repressing histone markers, such as H3K9Me3, is increased.
# wild-type control retina = test: Intravitreal injection in wild-type control retina (H&E); format: in vivo
# Description: as §1, §2
# In this present example, one example of a potent Histone Acetylation Transferase inhibitor (HATi), the compound SYC1127, is administered by intravitreal injection in a retinal degeneration mouse model having a knockout mutation in Spata7. An example of an injection regimen is provided in FIG. 1A, in which there are multiple intravitreal injections. […]
compound,measurement,setting,value
"c1cc(-c2ccc(-c3ncc(OCC4CCNCC4)nc3-c3ccc(-c4ccoc4)cc3)cc2)co1 [SYC1127, 2,3-bis(4-(furan-3-yl)phenyl)-5-(piperidin-4-ylmethoxy)pyrazine]",migration of Müller glial cells,"Spata7 mutant retina; Spata7 KO, IHC, FIG. 5",Migration of Müller glial cells from the INL to photoreceptor and retinal ganglion cell layers
same,number of Müller glial cells (Sox9 positive cells and GFAP staining),"Spata7 mutant retina; Spata7 KO, IHC, FIG. 5",Increase in the number of Müller glial cells
same,thickness of neuronal layers vs uninjected Spata7 mutant retina,"Spata7 mutant retina; intravitreal injection, H&E, FIG. 1B",thickening of all three neuronal layers
same,cell proliferation in Spata7 mutant retina,"Spata7 mutant retina; intravitreal injection, H&E, FIG. 1B / FIG. 3",extensive cell proliferation; also recorded: proliferation of all three neural layers of the retina
same,Müller glia cell activation (GFAP staining),"Spata7 mutant retina; intravitreal injection, IHC, FIG. 1C",massive elevated Müller glia cell activation
same,retinal ganglion cells (RBPMS staining),"Spata7 mutant retina; intravitreal injection, IHC, FIG. 1C / FIG. 4",multiple layers of cells that are positive for retinal ganglion cells (RGC) are observed; also recorded: increase of cells in the RGC layer
same,regeneration of retinal neurons in degenerating retina,"Spata7 mutant retina; intravitreal injection, overall conclusion",complete regeneration of retinal neurons
same,level of chromatin-repressing histone markers (H3K9Me3),[1],increased
same,level of histone acetylation (H3K27Ac),[1],reduction
same,toxicity of injection of the drug,wild-type control retina; FIG. 1B,not toxic
same,change in wild-type control retina,"wild-type control retina; wild-type, FIG. 1B / FIG. 3",little change; also recorded: no changes are observed
